Measurements as given in US9353081B2, “Bicyclic dihydroquinoline-2-one derivatives” (Hoffmann-La Roche Inc., priority 2011, dated 2016).

Experiments:
human CYP11B2 = human CYP11B2 (Homo sapiens (Human), UniProt P19099); experiment: G-402 cellular enzyme assay, human CYP11B2 (aldosterone release, HTRF); format: cell-based; details: G-402 cells expressing human CYP11B2; 1 μM Deoxycorticosterone
Description: (§1) Specifically we developed stable G-402 cells expressing ectopically human CYP11B1, human CYP11B2, human CYP11A1, cynomolgus CYP11B1 or cynomolgus CYP11B2 enzyme activity.
(§2) The expression plasmids contains the ORF for either human/cyno CYP11B1 or CYP11B2 under the control of a suitable promoter (CMV-promoter) and a suitable resistance marker (neomycin). Using standard techniques the expression plasmid is transfected into G-402 cells and these cells are then selected for expressing the given resistance markers. Individual cell-clones are then selected and assessed for displaying the desired enzymatic activity using 11-Deoxycorticosterone (Cyp11B2) or 11-Deoxycortisol (Cyp11B1) as a substrate.
(§3) For assaying enzymatic activity, cells were plated onto 96 well plates and incubated for 16 h. An aliquot of the supernatant is then transferred and analyzed for the concentration of the expected product (Aldosterone for CYP11B2; Cortisol for CYP11B1). The concentrations of these steroids can be determined using HTRF assays from CisBio analyzing either Aldosterone or Cortisol.
(§4) Inhibition of the release of produced steroids can be used as a measure of the respective enzyme inhibition by test compounds added during the cellular enzyme assay. The dose dependent inhibition of enzymatic activity by a compound is calculated by means of plotting added inhibitor concentrations x-axes) vs. measured steroid/product level (y-axes). The inhibition is then calculated by fitting the following 4-parameter sigmoidal function (Morgan-Mercer-Flodin (MMF) model) to the raw data points using the least squares method:
(§5) [formula] wherein, A is the maximum y value, B is the EC50 factor determined using XLFit, C is the minimum y value and D is the slope value.
(§6) EC50 values for compounds claimed herein were tested with the G402-based assay system described. Cyp11B2 enzyme activity was tested in presence of 1 μM Deoxycorticosterone and variable amounts of inhibitors; Cyp11B1 enzyme activity was tested in presence of 1 μM Deoxycortisol and variable amounts of inhibitors.

human CYP11B1 = human CYP11B1 (Homo sapiens (Human), UniProt P15538); experiment: G-402 cellular enzyme assay, human CYP11B1 (cortisol release, HTRF); format: cell-based; details: G-402 cells expressing human CYP11B1; 1 μM Deoxycortisol
human CYP11B1, sequence (P15538 25-503): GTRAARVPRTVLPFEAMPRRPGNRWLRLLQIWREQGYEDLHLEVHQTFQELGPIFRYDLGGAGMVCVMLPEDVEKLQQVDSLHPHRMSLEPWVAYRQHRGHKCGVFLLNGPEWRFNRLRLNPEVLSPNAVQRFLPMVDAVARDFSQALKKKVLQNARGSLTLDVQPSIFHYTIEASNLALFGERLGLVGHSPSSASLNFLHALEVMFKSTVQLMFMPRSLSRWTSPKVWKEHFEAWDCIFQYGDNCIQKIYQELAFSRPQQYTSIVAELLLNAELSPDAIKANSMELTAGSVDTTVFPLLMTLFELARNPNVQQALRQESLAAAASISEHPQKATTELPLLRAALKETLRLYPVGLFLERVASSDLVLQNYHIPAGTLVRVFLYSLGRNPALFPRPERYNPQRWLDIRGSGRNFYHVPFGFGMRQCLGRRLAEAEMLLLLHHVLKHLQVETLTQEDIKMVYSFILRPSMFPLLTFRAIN
Description: as §1, §2, §3, §4, §5, §6

human CYP11B2, sequence (P19099 25-503): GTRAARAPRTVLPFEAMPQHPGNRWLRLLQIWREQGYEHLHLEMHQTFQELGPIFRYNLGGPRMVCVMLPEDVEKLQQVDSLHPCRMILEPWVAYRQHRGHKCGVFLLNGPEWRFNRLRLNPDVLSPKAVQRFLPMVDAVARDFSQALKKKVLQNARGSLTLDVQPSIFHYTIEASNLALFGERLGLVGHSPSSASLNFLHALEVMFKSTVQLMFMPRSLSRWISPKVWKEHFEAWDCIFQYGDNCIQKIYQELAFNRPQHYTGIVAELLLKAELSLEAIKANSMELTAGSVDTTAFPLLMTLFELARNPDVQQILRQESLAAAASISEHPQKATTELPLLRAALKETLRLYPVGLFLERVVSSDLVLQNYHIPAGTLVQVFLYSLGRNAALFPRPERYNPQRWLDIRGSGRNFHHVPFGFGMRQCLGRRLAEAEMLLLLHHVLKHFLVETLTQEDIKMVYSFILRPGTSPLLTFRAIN

Row | Structure (SMILES) | EC50 (human CYP11B2) [nM] | EC50 (human CYP11B1) [nM]
1 | CCS(=O)(=O)NC1CCCc2c(-c3ccc4c(c3)CCC(=O)N4C)cncc21 (racemic) [Example 4, (rac)-N-(4-(1-Methyl-2-oxo-1,2,3,4-tetrahydroquinolin-6-yl)-5,6,7,8-tetrahydroisoquinolin-8-yl)ethanesulfonamide] | 97 | 4920
2 | C[C@@H](O)C(=O)NC1CCCc2c(-c3ccc4c(c3)CCC(=O)N4C)cncc21 (single isomer, unassigned; (+)) [Example 18, (+)-(2R)-2-Hydroxy-N-((4R or 4S)-4-(1-methyl-2-oxo-1,2,3,4-tetrahydroquinolin-6-yl)-5,6,7,8-tetrahydroisoquinolin-8-yl)propanamide] | 27.9 | 1490
3 | CCC(=O)NC1CCc2c(-c3ccc4c(c3)CCC(=O)N4C)cncc21 (racemic) [Example 7, (rac)-N-(4-(1-Methyl-2-oxo-1,2,3,4-tetrahydroquinolin-6-yl)-6,7-dihydro-5H-cyclopenta[c]pyridin-7-yl)propionamide] | 12 | 1110
4 | CN1C(=O)CCc2cc(-c3cncc4c3CCCC4O)ccc21 (single isomer, unassigned) [Example 68, (S or R)-6-(8-Hydroxy-5,6,7,8-tetrahydro-isoquinolin-4-yl)-1-methyl-3,4-dihydroquinolin-2(1H)-one] | 77.4 | 1620
5 | C[C@H](O)C(=O)NC1CCCc2c(-c3ccc4c(c3)CCC(=O)N4C)cncc21 (single isomer, unassigned; (+)) [Example 21, (+)-(2S)-2-hydroxy-N-((4R or 4S)-4-(1-methyl-2-oxo-1,2,3,4-tetrahydroquinolin-6-yl)-5,6,7,8-tetrahydroisoquinolin-8-yl)propanamide] | 28 | 598
6 | CCS(=O)(=O)NC1CCCc2c(-c3cc(F)c4c(c3)CCC(=O)N4C)cncc21 (racemic) [Example 36, (rac)-Ethanesulfonic acid [4-(8-fluoro-1-methyl-2-oxo-1,2,3,4-tetrahydro-quinolin-6-yl)-5,6,7,8-tetrahydro-isoquinolin-8-yl]-amide] | 239 | 20700
7 | CCC(=O)NC1CCc2c(-c3cc4c(cc3F)N(C)C(=O)CC4)cncc21 (racemic) [Example 22, (rac)-N-(4-(7-Fluoro-1-methyl-2-oxo-1,2,3,4-tetrahydroquinolin-6-yl)-6,7-dihydro-5H-cyclopenta[c]pyridin-7-yl)propionamide] | 10.2 | 1200
8 | CCC(=O)NC1CCCc2c(-c3cc4c(cc3F)N(C)C(=O)CC4)cncc21 (racemic) [Example 28, (rac)-N-[4-(7-Fluoro-1-methyl-2-oxo-1,2,3,4-tetrahydro-quinolin-6-yl)-5,6,7,8-tetrahydroisoquinolin-8-yl]-propionamide] | 74.9 | 6820
9 | CCS(=O)(=O)NC1CCCc2c(-c3ccc4c(c3)CCC(=O)N4C)cncc21 (single isomer, unassigned; (+)) [Example 6, (+)-(S or R)—N-(4-(1-Methyl-2-oxo-1,2,3,4-tetrahydroquinolin-6-yl)-5,6,7,8-tetrahydroisoquinolin-8-yl)ethanesulfonamide] | 48 | 1750
10 | CN1C(=O)CCc2cc(-c3cncc4c3CCCN4CCNC(=O)OC(C)(C)C)ccc21 [Example 11, {2-[5-(1-Methyl-2-oxo-1,2,3,4-tetrahydro-quinolin-6-yl)-3,4-dihydro-2H-[1,7]naphthyridin-1-yl]-ethyl}-carbamic acid tert-butyl ester] | 23 | 420
11 | CCS(=O)(=O)NC1CCCc2c(-c3cc4c(cc3Cl)N(C)C(=O)CC4)cncc21 (racemic) [Example 34, (rac)-Ethanesulfonic acid [4-(7-chloro-1-methyl-2-oxo-1,2,3,4-tetrahydro-quinolin-6-yl)-5,6,7,8-tetrahydro-isoquinolin-8-yl]-amide] | 386 | 34700
12 | CCC(=O)N[C@@H]1c2cncc(-c3ccc4c(c3)CCC(=O)N4C)c2CC[C@@H]1F (single isomer, unassigned) [Example 51, (−)-N-[(7S,8R or 7R,8S)-7-Fluoro-4-(1-methyl-2-oxo-1,2,3,4-tetrahydro-quinolin-6-yl)-5,6,7,8-tetrahydro-isoquinolin-8-yl]-propionamide] | 1470 | 32300
13 | CCS(=O)(=O)NC1CCc2c(-c3ccc4c(c3)CCC(=O)N4C)cncc21 (racemic) [Example 10, (rac)-N-(4-(1-Methyl-2-oxo-1,2,3,4-tetrahydroquinolin-6-yl)-6,7-dihydro-5H-cyclopenta[c]pyridin-7-yl)ethanesulfonamide] | 59 | 4170
14 | CCS(=O)(=O)NCCN1CCCc2c(-c3ccc4c(c3)CCC(=O)N4C)cncc21 [Example 14, N-(2-(5-(1-Methyl-2-oxo-1,2,3,4-tetrahydroquinolin-6-yl)-3,4-dihydro-1,7-naphthyridin-1(2H)-yl)ethyl)ethanesulfonamide] | 11 | 210
15 | C[C@@H](O)C(=O)NC1CCCc2c(-c3ccc4c(c3)CCC(=O)N4C)cncc21 (single isomer, unassigned; (-)) [Example 19, (−)-(2R)-2-Hydroxy-N-((4S or 4R)-4-(1-methyl-2-oxo-1,2,3,4-tetrahydroquinolin-6-yl)-5,6,7,8-tetrahydroisoquinolin-8-yl)propanamide] | 493 | 13200
16 | CCS(=O)(=O)NC1CCCc2c(-c3cc(Cl)c4c(c3)CCC(=O)N4C)cncc21 (racemic) [Example 37, (rac)-Ethanesulfonic acid [4-(8-chloro-1-methyl-2-oxo-1,2,3,4-tetrahydro-quinolin-6-yl)-5,6,7,8-tetrahydro-isoquinolin-8-yl]-amide] | 199 | 13500
17 | CCC(=O)N[C@@H]1CCCc2c(-c3ccc4c(c3)CCC(=O)N4C)cncc21 [Example 3-1, (+)-(R)—N-(4-(1-Methyl-2-oxo-1,2,3,4-tetrahydroquinolin-6-yl)-5,6,7,8-tetrahydroisoquinolin-8-yl)propionamide] | 14 | 980
18 | CCC(=O)NC1CCc2c(-c3ccc4c(c3)CCC(=O)N4C)cncc21 (single isomer, unassigned; (+)) [Example 9, (+)-(S or R)—N-(4-(1-Methyl-2-oxo-1,2,3,4-tetrahydroquinolin-6-yl)-6,7-dihydro-5H-cyclopenta[c]pyridin-7-yl)propionamide] | 13 | 570
19 | CCS(=O)(=O)NC1CCc2c(-c3cc4c(cc3F)N(C)C(=O)CC4)cncc21 (racemic) [Example 25, (rac)-N-(4-(7-Fluoro-1-methyl-2-oxo-1,2,3,4-tetrahydroquinolin-6-yl)-6,7-dihydro-5H-cyclopenta[c]pyridin-7-yl)ethanesulfonamide] | 33.4 | 2980
20 | CCC(=O)NCCN1CCCc2c(-c3ccc4c(c3)CCC(=O)N4C)cncc21 [Example 13, N-{2-[5-(1-Methyl-2-oxo-1,2,3,4-tetrahydro-quinolin-6-yl)-3,4-dihydro-2H-[1,7]naphthyridin-1-yl]-ethyl}-propionamide] | 14 | 1810
